Measured values published in ChEMBL document CHEMBL2331215, “Discovery of novel N-substituted oxindoles as selective m1 and m4 muscarinic acetylcholine receptors partial agonists” (ACS Med Chem Lett, 2013).
Active and inactive are the calls of the source. The calls are words filed in the database; no cut-off is given here.

Tests used:
[1] = system: Rattus norvegicus; assay: Induction of catalepsy in Sprague-Dawley rats at 10 to 30 mg/kg, sc measured after 60 mins; type: organism-based; design: dose 10-30 mg/kg, route subcutaneous; conditions: in vivo, 1 h
[2] = biological target: T1, Muscarinic acetylcholine receptor M4 (Homo sapiens) (UniProt P08173); assay: (§1) Partial agonist activity at human M4 receptor co-expressed with Galpha16 in CHO cells assessed as calcium mobilization after 60 mins by FLIPR assay; type: functional, cell-based
T1 sequence (whole entry): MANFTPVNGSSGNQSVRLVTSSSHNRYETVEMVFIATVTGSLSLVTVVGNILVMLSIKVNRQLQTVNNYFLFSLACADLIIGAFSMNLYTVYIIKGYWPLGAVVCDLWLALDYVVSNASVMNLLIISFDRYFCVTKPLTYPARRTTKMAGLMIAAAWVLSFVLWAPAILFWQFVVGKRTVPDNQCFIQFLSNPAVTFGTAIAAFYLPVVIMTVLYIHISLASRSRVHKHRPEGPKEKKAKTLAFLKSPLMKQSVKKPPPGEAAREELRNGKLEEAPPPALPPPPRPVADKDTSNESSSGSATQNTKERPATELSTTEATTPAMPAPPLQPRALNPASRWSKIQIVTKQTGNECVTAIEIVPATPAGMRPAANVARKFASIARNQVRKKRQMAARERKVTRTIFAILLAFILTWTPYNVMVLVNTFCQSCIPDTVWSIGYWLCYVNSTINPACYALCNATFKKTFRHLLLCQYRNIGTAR

[3] = biological target: T2, Muscarinic acetylcholine receptor M4 (Homo sapiens, UniProt P08173); assay: as §1; type: functional, cell-based
T2 sequence (P08173 whole entry): T1 sequence (whole entry)

[4] = system: Cynomolgus monkey; assay: Cardiotoxicity in telemetered cynomolgus monkey assessed as increase in mean blood pressure at 1.5 to 6 mg/kg, sc measured after 1 to 4 hrs by telemetry method; type: toxicity, organism-based, Macaca fascicularis; design: route subcutaneous; conditions: in vivo
[5] = system: Cynomolgus monkey; assay: Cardiotoxicity in telemetered cynomolgus monkey assessed as prolongation of QRS duration at 1.5 to 6 mg/kg, sc measured after 1 to 4 hrs by telemetry method; type: toxicity, organism-based, Macaca fascicularis; design: route subcutaneous; conditions: in vivo
[6] = system: Rattus norvegicus; assay: Potentiation of risperidone-induced catalepsy in Sprague-Dawley rats at 10 mg/kg, sc administered 15 mins after risperidone injection measured after 45 mins; type: ADME, organism-based; design: dose 10 mg/kg, route subcutaneous; conditions: in vivo, 0.75 h
[7] = system: Cynomolgus monkey; assay: Induction of salivation in sc dosed cynomolgus monkey; type: organism-based, Macaca fascicularis; conditions: in vivo
[8] = system: Rattus norvegicus; assay: Antipsychotic activity in Sprague-Dawley rats assessed as inhibition of apomorphine-induced prepulse inhibition deficit at 1 to 10 mg/kg, sc administered 15 mins prior to apomorphine injection measured after 15 mins; type: functional, organism-based
[9] = system: Cynomolgus monkey; assay: Cardiotoxicity in telemetered cynomolgus monkey assessed as prolongation of QTc interval at 1.5 to 6 mg/kg, sc measured after 1 to 4 hrs by telemetry method; type: toxicity, organism-based, Macaca fascicularis; design: route subcutaneous; conditions: in vivo
[10] = system: Rattus norvegicus; assay: Antipsychotic activity in Sprague-Dawley rats assessed as reversal of methamphetamine-induced hyperlocomotion at 1 to 10 mg/kg, sc administered 30 mins prior to methamphetamine injection measured for 80 mins from 10 mins after methamphetamine challenge; type: functional, organism-based
[11] = system: Rattus norvegicus; assay: Antipsychotic activity in Sprague-Dawley rats assessed as reversal of methamphetamine-induced hyperlocomotion at 0.6 mg/kg, sc administered 30 mins prior to methamphetamine injection measured for 80 mins from 10 mins after methamphetamine challenge in presence of 0.6 mg/kg, po risperidone; type: functional, organism-based
[12] = system: Cynomolgus monkey; assay: Induction of drowsiness in sc dosed cynomolgus monkey; type: organism-based, Macaca fascicularis; conditions: in vivo
[13] = system: Mus musculus; assay: Induction of seizures in ddY mouse at 100 mg/kg, sc measured for 45 mins after drug injection; type: organism-based; design: dose 100 mg/kg, route subcutaneous; conditions: in vivo, 0.75 h
[14] = biological target: T3, Muscarinic acetylcholine receptor M1 (Homo sapiens, UniProt P11229); assay: (§2) Partial agonist activity at human M1 receptor in CHO cells assessed as calcium mobilization after 60 mins by FLIPR assay; type: functional, cell-based
T3 sequence (P11229 whole entry): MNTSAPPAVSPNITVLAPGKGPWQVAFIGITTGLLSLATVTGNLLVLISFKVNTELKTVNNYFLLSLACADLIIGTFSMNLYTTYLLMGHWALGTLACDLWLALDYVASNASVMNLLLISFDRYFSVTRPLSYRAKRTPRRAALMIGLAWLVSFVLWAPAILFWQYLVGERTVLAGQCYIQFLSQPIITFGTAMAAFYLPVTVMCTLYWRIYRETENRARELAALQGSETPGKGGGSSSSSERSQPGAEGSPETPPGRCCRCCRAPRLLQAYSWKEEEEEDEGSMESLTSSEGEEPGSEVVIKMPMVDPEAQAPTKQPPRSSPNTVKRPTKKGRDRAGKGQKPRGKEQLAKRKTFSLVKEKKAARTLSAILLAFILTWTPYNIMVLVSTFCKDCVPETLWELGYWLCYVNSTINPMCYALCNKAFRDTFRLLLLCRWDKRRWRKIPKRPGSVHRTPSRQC

[15] = biological target: T4, Muscarinic acetylcholine receptor M1 (Homo sapiens) (UniProt P11229); assay: as §2; type: functional, cell-based
T4 sequence (whole entry): T3 sequence (P11229 whole entry)

[16] = system: Mus musculus; assay: Induction of salivation in ddY mouse at 10 to 30 mg/kg, sc measured for 30 mins after drug administration; type: organism-based; design: dose 10-30 mg/kg, route subcutaneous; conditions: in vivo, 0.5 h
[17] = biological target: Voltage-gated inwardly rectifying potassium channel KCNH2 (Homo sapiens, UniProt Q12809); assay: Inhibition of human ERG assessed as decrease in tail current amplitude measured after 5 mins by whole cell patch clamp technique
[18] = biological target: T5, Muscarinic acetylcholine receptor M5 (Homo sapiens) (UniProt P08912); assay: Partial agonist activity at human M5 receptor in CHO cells assessed as calcium mobilization at 30 uM after 60 mins by FLIPR assay; type: functional, cell-based
T5 sequence (whole entry): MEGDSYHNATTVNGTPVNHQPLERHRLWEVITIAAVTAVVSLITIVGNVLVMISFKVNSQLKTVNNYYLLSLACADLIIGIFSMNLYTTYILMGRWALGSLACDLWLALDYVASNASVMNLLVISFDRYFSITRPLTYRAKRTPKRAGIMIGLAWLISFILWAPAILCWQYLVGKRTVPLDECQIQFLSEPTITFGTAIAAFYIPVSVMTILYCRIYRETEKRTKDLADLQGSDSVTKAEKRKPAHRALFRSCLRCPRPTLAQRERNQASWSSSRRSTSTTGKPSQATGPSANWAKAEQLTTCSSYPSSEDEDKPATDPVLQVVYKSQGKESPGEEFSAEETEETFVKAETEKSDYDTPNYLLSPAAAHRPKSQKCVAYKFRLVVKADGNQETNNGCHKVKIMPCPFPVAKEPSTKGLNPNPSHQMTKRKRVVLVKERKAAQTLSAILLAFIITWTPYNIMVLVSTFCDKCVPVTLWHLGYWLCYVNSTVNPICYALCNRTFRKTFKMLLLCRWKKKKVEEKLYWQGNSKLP

[19] = system: Cynomolgus monkey; assay: Induction of miosis in sc dosed cynomolgus monkey; type: organism-based, Macaca fascicularis; conditions: in vivo
[20] = biological target: Muscarinic acetylcholine receptor M3 (Homo sapiens) (UniProt P20309); assay: Partial agonist activity at human M3 receptor in CHO cells assessed as calcium mobilization at 3 uM after 60 mins by FLIPR assay; type: functional, cell-based
[21] = system: Cynomolgus monkey; assay: Induction of vomiting in sc dosed cynomolgus monkey; type: organism-based, Macaca fascicularis; conditions: in vivo
[22] = biological target: Muscarinic acetylcholine receptor M3 (Homo sapiens) (UniProt P20309); assay: Partial agonist activity at human M3 receptor in CHO cells assessed as calcium mobilization at 30 uM after 60 mins by FLIPR assay; type: functional, cell-based
[23] = system: Mus musculus; assay: Antipsychotic activity in ddY mouse assessed as reversal of apomorphine-induced climbing behaviour at 0.3 to 3 mg/kg, sc administered 20 mins prior to apomorphine injection measured for 20 mins from 10 mins after apomorphine challenge; type: functional, organism-based

Sequence of Muscarinic acetylcholine receptor M3 (Homo sapiens) (P20309 whole entry, looked up): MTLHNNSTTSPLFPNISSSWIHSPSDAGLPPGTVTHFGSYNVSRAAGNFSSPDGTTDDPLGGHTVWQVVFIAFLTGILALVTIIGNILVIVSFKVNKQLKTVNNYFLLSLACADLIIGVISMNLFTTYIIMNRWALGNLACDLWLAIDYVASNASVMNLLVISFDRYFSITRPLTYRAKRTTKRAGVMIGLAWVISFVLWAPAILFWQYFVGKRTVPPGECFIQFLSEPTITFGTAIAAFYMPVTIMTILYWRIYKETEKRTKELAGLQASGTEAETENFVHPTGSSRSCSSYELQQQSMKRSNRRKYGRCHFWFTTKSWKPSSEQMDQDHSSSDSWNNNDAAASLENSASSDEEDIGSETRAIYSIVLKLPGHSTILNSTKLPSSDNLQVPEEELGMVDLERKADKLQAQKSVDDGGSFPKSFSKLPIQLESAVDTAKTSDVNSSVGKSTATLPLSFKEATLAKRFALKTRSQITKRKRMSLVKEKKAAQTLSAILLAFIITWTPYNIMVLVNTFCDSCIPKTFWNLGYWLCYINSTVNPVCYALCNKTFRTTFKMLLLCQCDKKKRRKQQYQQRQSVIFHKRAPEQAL
Sequence of Voltage-gated inwardly rectifying potassium channel KCNH2 (Q12809 whole entry): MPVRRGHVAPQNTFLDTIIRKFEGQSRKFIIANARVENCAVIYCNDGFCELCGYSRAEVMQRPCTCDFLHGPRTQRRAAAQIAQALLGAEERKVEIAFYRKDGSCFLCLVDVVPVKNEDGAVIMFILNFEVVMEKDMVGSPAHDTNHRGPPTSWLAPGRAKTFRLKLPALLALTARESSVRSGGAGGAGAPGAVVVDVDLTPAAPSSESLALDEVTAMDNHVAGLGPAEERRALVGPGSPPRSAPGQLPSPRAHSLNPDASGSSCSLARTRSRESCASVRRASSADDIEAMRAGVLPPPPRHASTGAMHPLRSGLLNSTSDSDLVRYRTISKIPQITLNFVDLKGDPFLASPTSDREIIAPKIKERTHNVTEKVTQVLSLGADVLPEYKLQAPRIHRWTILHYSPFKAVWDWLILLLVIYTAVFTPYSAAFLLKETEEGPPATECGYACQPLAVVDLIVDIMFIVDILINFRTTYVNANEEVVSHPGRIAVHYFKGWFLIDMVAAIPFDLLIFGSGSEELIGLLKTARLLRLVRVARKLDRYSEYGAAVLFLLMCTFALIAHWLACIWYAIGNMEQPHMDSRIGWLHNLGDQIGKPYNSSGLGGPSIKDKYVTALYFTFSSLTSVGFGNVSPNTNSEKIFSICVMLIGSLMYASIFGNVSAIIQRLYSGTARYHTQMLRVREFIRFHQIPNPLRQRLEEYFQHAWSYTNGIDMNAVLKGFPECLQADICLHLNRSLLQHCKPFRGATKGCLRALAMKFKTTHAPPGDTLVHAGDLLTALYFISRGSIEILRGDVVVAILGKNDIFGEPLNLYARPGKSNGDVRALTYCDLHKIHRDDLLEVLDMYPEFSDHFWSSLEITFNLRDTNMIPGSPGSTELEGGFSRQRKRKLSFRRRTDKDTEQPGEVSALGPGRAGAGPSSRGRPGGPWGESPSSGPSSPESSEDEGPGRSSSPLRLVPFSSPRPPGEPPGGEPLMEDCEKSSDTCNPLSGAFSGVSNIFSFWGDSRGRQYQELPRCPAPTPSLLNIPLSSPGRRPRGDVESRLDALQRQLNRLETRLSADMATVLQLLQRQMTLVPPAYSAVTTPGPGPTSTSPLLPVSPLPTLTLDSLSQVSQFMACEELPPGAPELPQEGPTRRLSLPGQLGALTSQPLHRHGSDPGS

## CCOC(=O)N1[C@@H]2CC[C@H]1C[C@H](CN1CC[C@H](N3C(=O)Cc4ccccc43)C1)C2
[1]
  Activity: Non-toxic
[2]
  Intrinsic activity: 42%
[3]
  EC50: 29 nM
[4]
  Activity: Non-toxic
[5]
  Activity: Non-toxic
[6]
  Activity: Non-toxic
[7]
  Activity: Toxic
[8]
  inhibition: Active
[9]
  Activity: Non-toxic
[10]
  inhibition: Active
[11]
  inhibition: Active
[12]
  Activity: Non-toxic
[13]
  Activity: Non-toxic
[14]
  EC50: 12 nM
[15]
  Intrinsic activity: 60%
[16]
  Activity: Non-toxic
[17]
  IC50: 2400 nM
[18]
  Activity: inactive
[19]
  Activity: Toxic
[20]
  Activity: 7%
[21]
  Activity: Non-toxic
[22]
  Activity: inactive
[23]
  inhibition: Active
